Source: PubChem BioAssay AID1963869 (Molecular Pharmacology Branch, DTP, NCI, 2024)

System: KRAS patient-derived spheroids with HUVEC/MSC, viability
Assay: Anticancer human tumor 323965-272-R-J2-PDC patient-derived pancreatic carcinoma cell line growth inhibition [KRAS2]
Settings: for IC50: curve of first compound; for viability, T/C: stronger effect = lower value
Procedure, shortened: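 KRAS-mutant tumor cells were grown as spheroids with HUVEC endothelial cells and human MSCs as stroma. Targeted agents were tested alone and with KRAS pathway inhibitors. Doses started at or near clinical Cmax, or 10 microM, descending half-log.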

[1] = second compound 0.1 µM, first compound 0.0316 µM
[2] = second compound 0.1 µM, first compound 0.1 µM
[3] = second compound 0.1 µM, first compound 0.316 µM
[4] = second compound 0.1 µM, first compound 1 µM
[5] = second compound 0.1 µM, first compound 3.16 µM
[6] = second compound 0.316 µM, first compound 0.0316 µM
[7] = second compound 0.316 µM, first compound 0.1 µM
[8] = second compound 0.316 µM, first compound 0.316 µM
[9] = second compound 0.316 µM, first compound 1 µM
[10] = second compound 0.316 µM, first compound 3.16 µM
[11] = second compound 1 µM, first compound 0.0316 µM
[12] = second compound 1 µM, first compound 0.1 µM
[13] = second compound 1 µM, first compound 0.316 µM
[14] = second compound 1 µM, first compound 1 µM
[15] = second compound 1 µM, first compound 3.16 µM
[16] = second compound 3.16 µM, first compound 0.0316 µM
[17] = second compound 3.16 µM, first compound 0.1 µM
[18] = second compound 3.16 µM, first compound 0.316 µM
[19] = second compound 3.16 µM, first compound 1 µM
[20] = second compound 3.16 µM, first compound 3.16 µM
[21] = second compound 0.1 µM, first compound 0.01 µM
[22] = second compound 0.316 µM, first compound 0.01 µM
[23] = second compound 1 µM, first compound 0.01 µM
[24] = second compound 3.16 µM, first compound 0.01 µM
[25] = second compound 10 µM, first compound 0.01 µM
[26] = second compound 10 µM, first compound 0.0316 µM
[27] = second compound 10 µM, first compound 0.1 µM
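Note: spheroids exposed to agents for 7 days.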
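Throughout, for viability, T/C: 100% = DMSO vehicle control viability.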

Cn1nccc1Nc1nccc(-c2cc3c(s2)C(C)(C)N(CCN2CCOCC2)C3=O)n1 + C=CC(=O)N1CCN(c2nc(OCC3CCCN3C)nc3c2CCN(c2cccc4cccc(C)c24)C3)CC1CC#N
IC50 (second compound 0.0316 µM): 387 nM
IC50 (second compound 0.1 µM): < 31.6 nM
IC50 (second compound 0.316 µM): 58.5 nM
IC50 (second compound 1 µM): < 31.6 nM
IC50 (second compound 3.16 µM): < 31.6 nM
viability, T/C (second compound 0.0316 µM, first compound 0.0316 µM): 59.9%
viability, T/C (second compound 0.0316 µM, first compound 0.1 µM): 59.8%
viability, T/C (second compound 0.0316 µM, first compound 0.316 µM): 50.2%
viability, T/C (second compound 0.0316 µM, first compound 1 µM): 43.2%
viability, T/C (second compound 0.0316 µM, first compound 3.16 µM): 31.5%
viability, T/C (second compound 0.0316 µM, first compound 10 µM): 32.5%
viability, T/C [1]: 49.1%
viability, T/C [2]: 49.1%
viability, T/C [3]: 39.2%
viability, T/C [4]: 36.4%
viability, T/C [5]: 32.1%
viability, T/C (second compound 0.1 µM, first compound 10 µM): 36.4%
viability, T/C [6]: 55.5%
viability, T/C [7]: 44.9%
viability, T/C [8]: 40%
viability, T/C [9]: 37.4%
viability, T/C [10]: 30.8%
viability, T/C (second compound 0.316 µM, first compound 10 µM): 35.5%
viability, T/C [11]: 45.5%
viability, T/C [12]: 41.8%
viability, T/C [13]: 45.8%
viability, T/C [14]: 35.7%
viability, T/C [15]: 28.9%
viability, T/C (second compound 1 µM, first compound 10 µM): 29.5%
viability, T/C [16]: 3.69%
viability, T/C [17]: 4.06%
viability, T/C [18]: 2.62%
viability, T/C [19]: 0.91%
viability, T/C [20]: 0.72%
viability, T/C (second compound 3.16 µM, first compound 10 µM): 0.53%

CC(=O)OC12COC1CC(O)C1(C)C(=O)C(O)C3=C(C)C(OC(=O)C(O)C(NC(=O)OC(C)(C)C)c4ccccc4)CC(O)(C(OC(=O)c4ccccc4)C21)C3(C)C (stereo not given) + CC1OCC2(CCN(c3cnc(Sc4ccnc(N)c4Cl)c(N)n3)CC2)C1N
IC50 (second compound 0.1 µM): < 10 nM
IC50 (second compound 0.316 µM): < 10 nM
IC50 (second compound 1 µM): < 10 nM
IC50 (second compound 3.16 µM): < 10 nM
IC50 (second compound 10 µM): < 10 nM
viability, T/C [21]: 26.3%
viability, T/C [1]: 25.6%
viability, T/C [2]: 25.5%
viability, T/C [3]: 21.7%
viability, T/C [4]: 27%
viability, T/C [5]: 27.7%
viability, T/C [22]: 23.8%
viability, T/C [6]: 23.9%
viability, T/C [7]: 21.3%
viability, T/C [8]: 19.8%
viability, T/C [9]: 23%
viability, T/C [10]: 23.5%
viability, T/C [23]: 34.2%
viability, T/C [11]: 33.5%
viability, T/C [12]: 31.2%
viability, T/C [13]: 32.4%
viability, T/C [14]: 37.2%
viability, T/C [15]: 39.7%
viability, T/C [24]: 16.9%
viability, T/C [16]: 16.3%
viability, T/C [17]: 14.8%
viability, T/C [18]: 14.1%
viability, T/C [19]: 15.2%
viability, T/C [20]: 17.2%
viability, T/C [25]: 18.1%
viability, T/C [26]: 16.5%
viability, T/C [27]: 15.9%
viability, T/C (second compound 10 µM, first compound 0.316 µM): 12.3%
viability, T/C (second compound 10 µM, first compound 1 µM): 13.9%
viability, T/C (second compound 10 µM, first compound 3.16 µM): 16.7%

CN(C)C/C=C/C(=O)Nc1cc2c(Nc3ccc(F)c(Cl)c3)ncnc2cc1O[C@H]1CCOC1 + CC1OCC2(CCN(c3cnc(Sc4ccnc(N)c4Cl)c(N)n3)CC2)C1N
IC50 (second compound 0.1 µM): > 100 nM
IC50 (second compound 0.316 µM): 0.979 nM
IC50 (second compound 1 µM): > 100 nM
IC50 (second compound 3.16 µM): < 0.316 nM
IC50 (second compound 10 µM): > 100 nM
viability, T/C (second compound 0.1 µM, first compound 0.000316 µM): 68.4%
viability, T/C (second compound 0.1 µM, first compound 0.001 µM): 75.9%
viability, T/C (second compound 0.1 µM, first compound 0.00316 µM): 65.4%
viability, T/C [21]: 57.8%
viability, T/C [1]: 57.7%
viability, T/C [2]: 58.6%
viability, T/C (second compound 0.316 µM, first compound 0.000316 µM): 63%
viability, T/C (second compound 0.316 µM, first compound 0.001 µM): 49%
viability, T/C (second compound 0.316 µM, first compound 0.00316 µM): 48.1%
viability, T/C [22]: 38.1%
viability, T/C [6]: 41.1%
viability, T/C [7]: 44.6%
viability, T/C (second compound 1 µM, first compound 0.000316 µM): 96.4%
viability, T/C (second compound 1 µM, first compound 0.001 µM): 95.8%
viability, T/C (second compound 1 µM, first compound 0.00316 µM): 78.5%
viability, T/C [23]: 75.2%
viability, T/C [11]: 64.6%
viability, T/C [12]: 63.3%
viability, T/C (second compound 3.16 µM, first compound 0.000316 µM): 39%
viability, T/C (second compound 3.16 µM, first compound 0.001 µM): 33%
viability, T/C (second compound 3.16 µM, first compound 0.00316 µM): 27.4%
viability, T/C [24]: 27.7%
viability, T/C [16]: 28.6%
viability, T/C [17]: 34.7%
viability, T/C (second compound 10 µM, first compound 0.000316 µM): 107%
viability, T/C (second compound 10 µM, first compound 0.001 µM): 96.9%
viability, T/C (second compound 10 µM, first compound 0.00316 µM): 70.5%
viability, T/C [25]: 56%
viability, T/C [26]: 59.8%
viability, T/C [27]: 55.9%
